Values after ≈ are worked out from the molar mass of the structure shown.
How the values were obtained:
[1] = state of the art; cited from earlier work
[2] = system: E. faecium VRAR E315; experiment: agar diffusion method, inhibition zone; assay type: cell-based, Enterococcus faecium; conditions: E. faecium VRAR E315; MH agar, 18 hours at 37° C.; per disk 10 μl crude extract, 50 μg macrolactin, 78 μg erythromycin, 30 μg vancomycin, 10 μg ampicillin
Method: (§1) The agar diffusion method employing Mueller-Hinton (MH) agar (Difco Laboratories) was used to determine effectiveness against bacteria and yeasts. Sterile paper disks (Schleicher & Schüell, Germany) were seeded with 10 μl crude extract or with a solution of purified macrolactin (final compound concentration on the disk 50 μg) and then placed on the surface of MH-agar plates that had been seeded beforehand with a suspension of overnight culture of the test microorganisms at a concentration of 10^5 cells/ml.

[3] = system: B. cepacia SCV 141; experiment: agar diffusion method, inhibition zone; assay type: cell-based, Burkholderia cepacia; conditions: MH agar, 18 hours at 37° C., per disk 10 μl crude extract, 50 μg macrolactin, 78 μg erythromycin, 10 μg ampicillin
Method: as §1
The B. cepacia strain used, which is a clinical isolate from a cystic fibrosis patient, forms small colonies (SCV 141).

[4] = system: L929 mouse fibroblast cells; experiment: inhibition of proliferation, CyQUANT cell proliferation test; assay type: cell-based; conditions: 5 days
Method: The cytotoxicity of 7-O-malonyl macrolactin A was compared to that of 7-O-succinyl macrolactin A and macrolactin A in vitro with respect to the inhibition of the proliferation of L929 mouse fibroblast cells or the human epithelial cell line HeLa.
For the cell culture, the HeLa cells were cultivated in low-glucose DMEM medium (Gibco), and the L929 cells in high-glucose DMEM medium. Both were supplemented with 10% by volume foetal calf serum (Gibco) at 37° C. in an atmosphere containing 5% CO2. The cells were extracted from stock cultures by means of trypsinization with EDTA (HeLa) or without EDTA (L929), then counted and diluted to 2×10^5 cells/ml. For the tests, microtitre plates (Nunc.) comprising 96 depressions were plated out in serial dilution without or in the presence of the test compounds or methanol. Determination of morphological alterations of the cells was carried out by means of phase contrast microscopy after 1, 2 and 5 days incubation.
After 5 days cultivation, cell counts were determined by the CyQUANT cell proliferation test (Molecular Probes), which is a highly sensitive microtitre plate test based on fluorescence. The test employs the dye CyQUANT, which, by binding to cellular nucleic acids, enhances fluorescence, which can then be measured by fluorescein excitation. The emission of fluorescence by the dye-nucleic acid complex correlated linearly with the cell count. For test purposes, the residue was carefully removed after 5 days incubation, the cells washed with PBS (phosphate buffered saline solution), the buffer removed and the cells frozen at −80° C. For the test, the cells were thawed at ambient temperature and lysated in a buffered solution containing the dye CyQUANT, in accordance with manufacturer's instructions. Fluorescence was measured by means of a fluormetric microtitre-plate reader (Titertex Fluorskan II) (excitation at 480 nm, emission at 520 nm). The […] were used to calculate the percentage of cellular proliferation in medium both alone and in the presence of serial dilutions of methanol and the macrolactin compounds. […] Proliferation was measured by means of the fluorescence-based test CyQUANT for determining viable cell counts. Table 5 illustrates the relative inhibition of proliferation as compared to a control culture comprising fresh medium without the addition of a macrolactin.

[5] = system: MRSA 2 (methicillin-resistant S. aureus, clinical isolate); experiment: agar diffusion method, inhibition zone; assay type: cell-based, Staphylococcus aureus; conditions: MRSA 2; MH agar, 18 hours at 37° C.; per disk 10 μl crude extract, 50 μg macrolactin, 78 μg erythromycin, 30 μg vancomycin, 10 μg ampicillin
Method: as §1

[6] = system: S. aureus DSMZ 1104; experiment: agar diffusion method, inhibition zone; assay type: cell-based, Staphylococcus aureus; conditions: S. aureus DSMZ 1104; MH agar, 18 hours at 37° C.; per disk 10 μl crude extract, 50 μg macrolactin, 78 μg erythromycin, 30 μg vancomycin, 10 μg ampicillin
Method: as §1

[7] = system: MRSA 3 (methicillin-resistant S. aureus, clinical isolate); experiment: agar diffusion method, inhibition zone; assay type: cell-based, Staphylococcus aureus; conditions: MRSA 3; MH agar, 18 hours at 37° C.; per disk 10 μl crude extract, 50 μg macrolactin, 78 μg erythromycin, 30 μg vancomycin, 10 μg ampicillin
Method: as §1

[8] = system: S. aureus # (own collection, methicillin-sensitive control strain); experiment: agar diffusion method, inhibition zone; assay type: cell-based, Staphylococcus aureus; conditions: S. aureus # own collection; MH agar, 18 hours at 37° C.; per disk 10 μl crude extract, 50 μg macrolactin, 78 μg erythromycin, 30 μg vancomycin, 10 μg ampicillin
Method: as §1

[9] = system: bacteria; conditions: state of the art; cited from earlier work
[10] = system: E. faecalis VRAS E305; experiment: agar diffusion method, inhibition zone; assay type: cell-based, Enterococcus faecalis; conditions: E. faecalis VRAS E305; MH agar, 18 hours at 37° C.; per disk 10 μl crude extract, 50 μg macrolactin, 78 μg erythromycin, 30 μg vancomycin, 10 μg ampicillin
Method: as §1

[11] = system: E. faecalis ATCC 29212; experiment: agar diffusion method, inhibition zone; assay type: cell-based, Enterococcus faecalis; conditions: E. faecalis ATCC 29212; MH agar, 18 hours at 37° C.; per disk 10 μl crude extract, 50 μg macrolactin, 78 μg erythromycin, 30 μg vancomycin, 10 μg ampicillin
Method: as §1

[12] = system: HIV; conditions: state of the art; cited from earlier work
[13] = system: Candida krusei DSM 6128; experiment: MIC / MBC in liquid culture; assay type: cell-based; conditions: Pichia kudriavzevii, DSM6128, read-out: MIC (minimal inhibitory concentration)
[14] = system: Candida albicans DSM 11225; experiment: MIC / MBC in liquid culture; assay type: cell-based; conditions: DSM11225, read-out: MIC (minimal inhibitory concentration)
[15] = system: Candida parapsilosis DSM5784; experiment: MIC / MBC in liquid culture; assay type: cell-based; conditions: Lodderomyces parapsilosis, read-out: MIC (minimal inhibitory concentration)
[16] = JP 9301970; cited from earlier work

C[C@@H]1CCC/C=C/C=C/C(O)CC(O)C/C=C\C=C\C(O)C/C=C/C=C\C(=O)O1 (stereo partly drawn) [Macrolactin A, 8, 14, 16-trihydroxy-24(R)-methyl-oxacyclotetracosa-3(Z), 5(B), 9(E), 11(Z), 17(E), 19(E)-hexaen-2-on]
cytotoxicity [1]: cytotoxic | Inhibition zone [2]: 0 mm | Inhibition zone [3]: 0 mm | Inhibition of proliferation ([4]; compound concentration 3.9 μg/ml): 23% | Inhibition of proliferation ([4]; compound concentration 7.8 μg/ml): 29% | Inhibition of proliferation ([4]; compound concentration 15.6 μg/ml): 38% | Inhibition of proliferation ([4]; compound concentration 31.25 μg/ml): 81% | Inhibition of proliferation ([4]; compound concentration 56.5 μg/ml): 83% | Inhibition of proliferation ([4]; compound concentration 125 μg/ml): 83% | Inhibition zone [5]: 27 mm | Inhibition zone [6]: 18 mm | Inhibition zone [7]: 35 mm | Inhibition zone [8]: 25 mm | antibacterial activity [9]: relatively weak | Inhibition zone [10]: 0 mm | Inhibition zone [11]: 0 mm | antiviral activity [12]: active against HIV

Clc1ccc(COC(Cn2ccnc2)c2ccc(Cl)cc2Cl)c(Cl)c1 (stereo not drawn) [MCZ, miconazol]
MIC [13]: 2 µg/mL (≈ 4.81 µM) | MIC [14]: 2 µg/mL (≈ 4.81 µM) | MIC [15]: 2 µg/mL (≈ 4.81 µM)

macrolactin M
antimicrobial activity [16]: antimicrobially active

— patent publication US7977375B2, “Antibiotic and method of production thereof” (Helmholtz-Zentrum Für Infektionsforschung GmbH, priority 2004, dated 2011)
